Data reported in patent US20030190368A1, “METHODS OF DIAGNOSIS AND TRIAGE USING CELL ACTIVATION MEASURES” (priority 1998, published 2003).

Key:
Assay type in all cases: cell-based
human neutrophils [1] = test: Lucigenin-enhanced superoxide chemiluminescence of human plasma / isolated neutrophils; conditions: for superoxide chemiluminescence of isolated neutrophils alone (no plasma): neutrophils in PBS, fMLP 10^-6 M, PAF 10^-6, homogenate 1 ml; for chemiluminescence in cell-free plasma: plasma filtered 1 um; for plasma chemiluminescence activation by pancreatic proteases: trypsin 1000 U/ml, chymotrypsin 100 U/ml, 155×10^3 neutrophils/ml plasma
Experimental: Human blood was collected in heparinized Vacutainer tubes (10 ml) and centrifuged at 500 G for 10 minutes. Plasma was collected and 3 ml were mixed with lucigenin (N,N′-dimethyl-9,9′-bisacridinium […]) (Sigma Chemical CO., St. Louis, Mo.) (1 ml of a 1 mM stock solution in deinozed water, final concentration […], near optimal concentration as determined by Ohoi, et al (26)) for each measurement in small petri dishes (60 mm diameter). In later modifications of the test, a 25 mm diameter polyurethane disk was placed inside the petri dishes to reduce the vessel diameter, and subsequently, the reagent requirements to 1 ml plasma mixed with 0.75 ml lucigenin (1 mM stock solution) and only 100 μl of an activator. […] Six Vacutainer tubes were normally collected from healthy volunteers. This volume gives approximately 8 measurements using the original configuration (3 ml plasma/measurement) and up to 25 measurements with the modified system (1 ml/measurement). When measuring whole blood samples, 3 ml of whole blood were subsitituted for 3 ml of plasma.
A standard neutrophil isolation procedure was used as described in Example 2 or pseudopod formation tests. Human blood from healthy volunteers (approximately 60 ml) was collected in heparinized Vacutainer tubes and transferred to a 60 ml syringe where it was sedimented on ice for 40-60 minutes. It is important that heparin and not EDTA ([…]) be used as an antocoagulant, since the calcium-chelating properties of EDTA can suppress neutrophil activation. The neutrophil-rich plasma layer was collected and layered onto 3.5 ml Histopaque (Sigma Diagnostics, St. Louis, Mo.) in 12 ml polypropylene centrifuge tubes (17×100 mm, Falcon, Shrewsbury, Mass.) and centrifuged at 600 G for 20 minutes. The sedimented neutrophils and red blood cells were then gently resuspended in 2 ml PBS (phosphate buffer solution). The resuspeneded cells were carefully layered onto 2.5 ml of a 55% isotonic Percoll solution (Sigma Diagnostics, St. Louis, Mo.) and 2.5 ml of a 74% isotonic Percoll solution in deionized water. This suspension was centrifuged at 600 G for 15 minutes and the middle granulyte layer was removed and resuspended in PBS to achieve a concentration of 10^6 neutrophils/ml.
For standard plasma measurements (e.g., low molecular weight fractions and whole pancreatic homogenates) human blood from healthy volunteers (approximately 60 ml) was collected in heparinized Vacutainer tubes and centrifuged for 10 minutes at 500 g. The plasma layer, including the buffy coat was carefully decanted using a steril transfer pipette. This fraction was then warmed to room temperature and plasma measurements were obtained. Plasma was diluted with sterile saline to achieve a plasma neutrophil concentration of 120×10^3 neutrophil/ml.
For experiments with different plasma concentrations versus neotrophil activators, measurements were made using isolated neutrophils, isolated neutrophils in 10% and 30% autologous plasma, and neutrophil-free plasma (filtered with 1 um filter and verified by cell count).
Cell-free plasma was obtained by filtering sedimented plasma through a 1 um filter (Whatman 6780-2510, Swedesboro, N.J.). The filtered plasma was visually verified to be cell free by placing an aliquot on a microscope slide and examining in detail at 400×. For experiments with different percentages of added plasma, 5 ml total volumes were made consisting of 1 ml lucigenin (1 mM), 1 ml activator, and either 3 ml suspended neutrophils, 2 ml suspended neutrophils plus 1 ml cell-free plasma mixed in PBS necessary for either 10% or 30% total plasma concentration, or 3 ml cell-free plasma. Activators (1 ml) were added via an injection port to the mixture at time t=0 seconds. […]

[2] = test system: isolated naive human neutrophils; test: Pseudopod formation test: protease inhibitors against pancreatic homogenate-induced neutrophil activation; conditions: for percent neutrophil pseudopod formation (activation) by rat pancreatic homogenate in presence of protease inhibitor: neutrophils preincubated 10 min with inhibitor (PMSF 1 mM; Complete 1 tablet/20 ml; Benzamidine 1150 μM; Futhan 0.1 mg/ml; aprotinin 20 μM), then homogenate 10 min, homogenate alone 85.1±11.5%
Experimental: (§1) For the pseudopod assay, venous blood is collected in heparinized tubes from healthy human volunteers and put on ice. It is important that heparin and not EDTA ([…]) be used as an anticoagulant, as the calcium-chelating properties of EDTA can affect neutrophil activation. […] Other chemicals for the Krebs-Henseleit buffer are from Fisher Scientific, Fair Lawn, N.J. The resuspended cells are then gently layered onto 2.5 ml of a 55% isotonic Percoll (Sigmal Chemical Company) solution and 2.5 ml of a 74% isotonic Percoll solution in deionized water. The suspension is centrifuged for 15 minutes at 600 G and the middle granulocyte layer is removed and resuspended in PBS to achieve a concentration of 10^6 neutrophils/ml. 100 μl aliquots of suspended neutrophils are added to 100 μl of test plasma or activating agent. This mixture is mixed and then incubated for 10 minutes at 27° C. After incubation 100 μl of 3% glutaraldehyde (Fisher Scientific) is added to stop the reaction. 100 μl of crystal violet in phosphate (pH: 7.4) buffer is then added to stain leukocyte nuclei on wet mount preparations. Freely suspended neutrophils with pseudopodia are identified by their segmented nuclei and the presence of cytoplasmic granules. One hundred neutrophils are counted. Cells with pseudopod projection greater than about 1 um are considered positive.
Rat homogenate was collected as described in detail in Example 5. Briefly, male Wistar rats (250-350 gm) were housed in a controlled environment and maintained on a standard pellet diet for at least three days before initiation of experimental procedures. Animals were cannulated via the femoral arteries and vein under general anesthesia using pentobarbital (50 mg/kg i.m.). The rats were exsanguinated and the heart, liver, spleen, small intestine, and pancreas removed. The organs were immediately washed and cleaned in cold 0.25 M sucrose solution. Then, the cleaned organs were vigorously homogenized in Krebs-Henseleit solution ([…]). Aliquots were filtered by centrifugation at 500 G for 10 min. Pancreatic homogenates were incubated for 2.5 hours at 38° C., stirred frequently. Incubated pancreatic homogenate as well as controls were tested against naive human donor neutrophils for pseudopod formation as described in Example 2.
To determine whether or not neutrophil activation by pancreatic homogenate is protease dependent, the pseudopod formation test was repeated by preincubation of isolated neutrophils with various protease inhibitors (50 μl) for 10 minutes followed by addition of pancreas homogenate (50 μl) and further incubation for 10 minutes. […] All protease inhibitors were the gift of Dr. Tony E. Hugli of The Scripps Clinic and Research Institute, with the exception of Complete™, an all-purpose protease inhibitor purchased from Boehringer Mannheim, Indianapolis, Ind. One of the components of Complete™ is EDTA (ethylenediaminetetra-acetic acid), a standard anti-coagulant and divalent cation chelator.
To determine whether the protease inhibitors were acting on the pancreatic homogenate or the neutrophils themselves, a new set of neutrophil pseudopod experiments was carried out. […] Appropriate controls were recorded as well as a positive control (10^−7 M fMLP) to determine the washed cells' ability to respond to stimuli. Formyl-methionyl-leucyl-phenylalanine (fMLP) was obtained from Sigma Chemical Company, St. Louis, Mo.

human neutrophils [3] = test: Neutrophil PAF inhibition experiments (pseudopod formation)
[4] = test system: isolated naive human neutrophils; test: Pseudopod formation test: neutrophil activation by organ homogenates, fractions and proteases; conditions: for percent pseudopod formation, control solution incubated with the additive alone (no organ homogenate): Krebs-Henseleit control incubated with additive at the same concentration, control activation 10.5±2.5%; for direct neutrophil activation by proteases / zymogen fragments (in words): pseudopod formation
Experimental: as §1
The organ homogenization procedure was similar to the method of Lefer (Glenn et al. (1971) Circ Res 29:338-349, Lefer (1973) Am J. Physiol 224:824-831). Male Wistar rats (250-350 gm) were housed in a controlled environment and maintained on standard pellet diet for at least three days before initiation of experimental procedures. Animals were cannulated via the femoral arteries and vein under general anesthesia using phenobarbital (50 mg/kg i.m.) No heparin was injected other than that needed to ensure open catheter lines (10 U/ml plasma-Lyte). A central incision was made over the abdomen. The rats were exsanguinated and the heart, liver, spleen, small intestine, and pancreas were removed. In two animals a kidney and adrenal gland were removed as well. They were immediately washed and cleaned in cold 0.25 M sucrose solution. The cleaned organs were vigorously homogenized in Krebs-Henseleit solution (1:3 w/v). Homogenate was then further diluted in Krebs-Henseleit solution (1:2 v/v). Aliquots were filtered by centrifugation at 500 G for 10 min and a sample aliquot was stored at 4° C. until assayed. The other fraction was incubated for 2.5 hours at 38° C. with mild stirring and stored at 4° C. until assayed. Incubation of tissue homogenates for this time period at a moderate temperature enhances any enzymatic activity that may be necessary in order to produce a neutrophil activation product. The incubated and non-incubated organ homogenates as well as controls were tested against naive human donor leukocytes for pseudopod formation tests and on whole rat donor blood for the NBT assay. Pseudopod determination was carried out as described in Example 2 using isolated neutrophils in D-PAS combined with homogenate in a 4:1 ratio. Nitroblue tetrazolium reduction by leukocytes due to superoxide in rat homogenate assays was also tested using the NBT procedure described in Example 2, with the application of 25 μl of homogenate to donor blood. The NBT assays for porcine homogenate activity were measured using the slightly modified NBT protocol with the crystal violet stain, also detailed in Example 2. […]

Molecule: 1-O-alkyl-2-acetyl-sn-glycero-3-phosphocholine [PAF]
- superoxide chemiluminescence of isolated neutrophils alone (no plasma) (human neutrophils [1]): likewise unreactive
- chemiluminescence in cell-free plasma (human neutrophils [1]): unreactive

Molecule: N=C(N)c1ccccc1 [Benzamidine]
- percent neutrophil pseudopod formation (activation) by rat pancreatic homogenate in presence of protease inhibitor [2]: 41.5±24.6%

Molecule: O=S(=O)(F)Cc1ccccc1 [PMSF, Phenylmethylsulfonyl fluoride]
- percent neutrophil pseudopod formation (activation) by rat pancreatic homogenate in presence of protease inhibitor [2]: 40.8±12.9%

Molecule: Cc1nnc2n1-c1sc3c(c1C(c1ccccc1Cl)=NC2)CC(C(=O)N1CCOCC1)C3 (centres unmarked) [WEB 2170]
- reduction of neutrophil activation by pancreatic or trypsin-incubated homogenates (human neutrophils [3]; 5 μM, 50 μM, 500 μM): largely ineffective

Molecule: CSCC[C@H](NC=O)C(=O)N[C@@H](CC(C)C)C(=O)N[C@@H](Cc1ccccc1)C(=O)O [fMLP, Formyl-methionyl-leucyl-phenylalanine]
- percent activation of twice-washed neutrophils by activator ([2]; no inhibitor, pancreatic homogenate 50 μl (Control group) or fMLP 10^-7 M (positive control)): 74%
- superoxide chemiluminescence of isolated neutrophils alone (no plasma) (human neutrophils [1]): not particularly reactive
- chemiluminescence in cell-free plasma (human neutrophils [1]): unreactive

Molecule: Phospholipase A2: from bovine pancreas, also degrades PAF
- intrinsic effect on neutrophils (human neutrophils [3]; 1, 10, 20 U/ml): neutrophil stimulatory properties

Molecule: aprotinin
- percent neutrophil pseudopod formation (activation) by rat pancreatic homogenate in presence of protease inhibitor [2]: 51±17.2%

Molecule: chymotrypsin
- plasma chemiluminescence activation by pancreatic proteases (human neutrophils [1]): little activation
- percent pseudopod formation, control solution incubated with the additive alone (no organ homogenate) [4]: 42%
- direct neutrophil activation by proteases / zymogen fragments (in words) [4]: did not result in neutrophil activation

B1: trypsinogen: trypsin precursor from bovine pancreas (protein, UniProt P00760 18-246, looked up)
pro-form: VDDDDKIVGGYTCGANTVPYQVSLNSGYHFCGGSLINSQWVVSAAHCYKSGIQVRLGEDNINVVEGNEQFISASKSIVHPSYNSNTLNNDIMLIKLKSAASLNSRVASISLPTSCASAGTQCLISGWGNTKSSGTSYPDVLKCLKAPILSDSSCKSAYPGQITSNMFCAGYLEGGKDSCQGDSGGPVVCSGKLQGIVSWGSGCAQKNKPGVYTKVCNYVSWIKQTIASN
modifications: pro-form
notes: trypsin precursor from bovine pancreas
- direct neutrophil activation by proteases / zymogen fragments (in words) [4]: not stimulatory towards neutrophils

B2: trypsin: serine protease, Type 11-S from porcine pancreas (protein, UniProt P00761 9-231, looked up)
Trypsin: IVGGYTCAANSIPYQVSLNSGSHFCGGSLINSQWVVSAAHCYKSRIQVRLGEHNIDVLEGNEQFINAAKIITHPNFNGNTLDNDIMLIKLSSPATLNSRVATVSLPRSCAAAGTECLISGWGNTKSSGSSYPSLLQCLKAPVLSDSSCKSSYPGQITGNMICVGFLEGGKDSCQGDSGGPVVCNGQLQGIVSWGYGCAQKNKPGVYTKVCNYVNWIQQTIAAN
- plasma chemiluminescence activation by pancreatic proteases (human neutrophils [1]): little activation
- percent pseudopod formation, control solution incubated with the additive alone (no organ homogenate) [4]: 8.5±0.8%
- direct neutrophil activation by proteases / zymogen fragments (in words) [4]: did not result in neutrophil activation
